These results are taken from US11478461B2, “[1.1.1] bicyclo compounds as indoleamine 2,3-dioxygenase inhibitors” (Merck Sharp & Dohme Corp., priority 2018, dated 2022).

Where only a bound is given, the exact number is not on record here.

The target of the assay is IDO1 (Homo sapiens, UniProt P14902). As to the kind of experiment: IDO1 Cellular Assay in Hela Cells Stimulated with IFNγ. Type of assay: cell-based. Conditions: IFNγ 100 ng/mL, 300 uM L-tryptophan, about 48 hours, fluorescence readout, read-out: IDO1 HELA Cell Assay, IC50. Summed up:
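HeLa cells stimulated with 100 ng/mL IFNγ, supplemented with 300 uM L-tryptophan, incubated 48 h at 37° C with ten 3-fold compound dilutions. Unstimulated cells served as Max-E control. Kynurenine detected by fluorescence (ex 400/em 510 nm) after overnight methyl isonipecotate reaction; IC50 by four-parameter logistic fit.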

Chain of IDO1 (P14902 whole entry): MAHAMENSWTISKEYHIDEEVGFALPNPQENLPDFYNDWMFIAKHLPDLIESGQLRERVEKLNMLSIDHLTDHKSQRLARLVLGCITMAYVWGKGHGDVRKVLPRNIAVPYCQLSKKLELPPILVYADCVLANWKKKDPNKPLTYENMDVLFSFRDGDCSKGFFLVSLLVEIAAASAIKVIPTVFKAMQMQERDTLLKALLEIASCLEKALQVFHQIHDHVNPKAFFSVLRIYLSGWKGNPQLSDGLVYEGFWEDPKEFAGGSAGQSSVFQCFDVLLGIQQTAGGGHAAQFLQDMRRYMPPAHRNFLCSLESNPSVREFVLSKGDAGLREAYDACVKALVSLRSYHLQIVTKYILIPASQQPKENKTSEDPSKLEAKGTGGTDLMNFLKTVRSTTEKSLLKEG

As usually defined, the IC50 is the concentration that gives 50% inhibition. As to `CC(C)(C(=O)Nc1ccc(F)cc1)C12CC(NC(=O)c3cccc(Cl)c3)(C1)C2` [Example 102, 3-Chloro-N-(3-(1-((4-fluorophenyl)amino)-2-methyl-1-oxopropan-2-yl)bicyclo[1.1.1]pentan-1-yl)benzamide], the 50% inhibitory concentration (IC50) was determined as 19.2 nM.

As for `C[C@H](C(=O)Nc1ccc(F)cc1)C12CC(NC(=O)c3ccc(F)c(F)c3)(C1)C2` [Example 69, (S)-3,4-Difluoro-N-(3-(1-((4-fluorophenyl)amino)-1-oxopropan-2-yl)bicyclo[1.1.1]pentan-1-yl)benzamide], the IC50 was determined as 23.6 nM.

Regarding `CC(C(=O)Nc1ccc(Cl)nc1)C12CC(NC(=O)c3cccc(Cl)c3)(C1)C2` (single isomer, unassigned) [Example 16, 3-chloro-N-(3-(1-((6-chloropyridin-3-yl)amino)-1-oxopropan-2-yl)bicyclo[1.1.1]pentan-1-yl)benzamide], the IC50 worked out at 183 nM.

As to `C[C@H](C(=O)Nc1ccc(F)cc1)C12CC(NC(=O)Nc3cccc(C(F)(F)F)c3)(C1)C2` [Example 87, (S)-N-(4-fluorophenyl)-2-(3-(3-(3-(trifluoromethyl)phenyl)ureido)bicyclo[1.1.1]pentan-1-yl)propanamide], the half-maximal inhibitory concentration (IC50) is 90.3 nM.

For the molecule `CC(C(=O)Nc1ccc(F)cc1)C12CC(NC(=O)c3ncccc3F)(C1)C2` (stereo not drawn) [Example 137, 3-fluoro-N-[3-[2-(4-fluoroanilino)-1-methyl-2-oxo-ethyl]-1-bicyclo[1.1.1]pentanyl]pyridin-1-ium-2-carboxamide], the 50% inhibitory concentration (IC50) came to 387 nM.

For `CCc1ccnc(C(=O)NC23CC(C(C)C(=O)Nc4ccc(F)cc4)(C2)C3)c1` (stereo not drawn) [Example 117, 4-ethyl-N-[3-[2-(4-fluoroanilino)-1-methyl-2-oxo-ethyl]-1-bicyclo[1.1.1]pentanyl]pyridin-1-ium-2-carboxamide], the half-maximal inhibitory concentration (IC50) is 73.5 nM.

As to `CC(C(=O)Nc1ccc(F)cc1)C12CC(NC(=O)c3cccc4ccncc34)(C1)C2` (stereo not drawn) [Example 130, N-[3-[2-(4-fluoroanilino)-1-methyl-2-oxo-ethyl]-1-bicyclo[1.1.1]pentanyl]isoquinolin-2-ium-8-carboxamide], the IC50 came out at 247 nM.

In the case of `CC(C(=O)Nc1ccc(F)cc1)C12CC(NC(=O)c3cc4ccccc4cn3)(C1)C2` (stereo not drawn) [Example 144, N-[3-[2-(4-fluoroanilino)-1-methyl-2-oxo-ethyl]-1-bicyclo[1.1.1]pentanyl]isoquinolin-2-ium-3-carboxamide], the IC50 stood at 463 nM.

As to `Cc1nc(C)c(C(=O)NC23CC(C(C)C(=O)Nc4ccc(F)cc4)(C2)C3)s1` (stereo not drawn) [Example 136, N-[3-[2-(4-fluoroanilino)-1-methyl-2-oxo-ethyl]-1-bicyclo[1.1.1]pentanyl]-2,4-dimethyl-thiazole-5-carboxamide], the IC50 was found to be 318 nM.

With `CC(C(=O)Nc1ccc(F)cc1)C12CC(NC(=O)c3cc(C4CC4)on3)(C1)C2` (stereo not drawn) [Example 120, 5-cyclopropyl-N-[3-[2-(4-fluoroanilino)-1-methyl-2-oxo-ethyl]-1-bicyclo[1.1.1]pentanyl]isoxazole-3-carboxamide], the IC50 came out at 125 nM.

On to `C[C@H](C(=O)Nc1ccc(F)cc1)C12CC(NC(=O)c3cncc(C(F)(F)F)c3)(C1)C2` [Example 68, N-[3-[(1S)-2-(4-fluoroanilino)-1-methyl-2-oxo-ethyl]-1-bicyclo[1.1.1]pentanyl]-5-(trifluoromethyl)pyridin-1-ium-3-carboxamide], for which the IC50 turned out to be 13.9 nM.

For `C[C@H](C(=O)Nc1ccc(F)cc1)C12CC(NC(=O)c3ccc(F)c(Cl)c3)(C1)C2` [Example 48, 3-chloro-4-fluoro-N-[3-[(1S)-2-(4-fluoroanilino)-1-methyl-2-oxo-ethyl]-1-bicyclo[1.1.1]pentanyl]benzamide], the IC50 came to 1.72 nM.

With `C[C@H](C(=O)Nc1ccc(F)cc1)C12CC(NC(=O)c3ccc4cccnc4c3)(C1)C2` [Example 147, (S)-N-(3-(1-((4-fluorophenyl)amino)-1-oxopropan-2-yl)bicyclo[1.1.1]pentan-1-yl)quinoline-7-carboxamide], the concentration for half-maximal inhibition (IC50) amounted to 176 nM.

Turning to `C[C@H](C(=O)Nc1ccc(F)cc1)C12CC(NC(=O)c3ccc4ccccc4c3)(C1)C2` [Example 148, (S)-N-(3-(1-((4-fluorophenyl)amino)-1-oxopropan-2-yl)bicyclo[1.1.1]pentan-1-yl)-2-naphthamide], the IC50 was determined as 19.7 nM.

Take `Cc1cc(C(=O)NC23CC([C@H](C)C(=O)Nc4ccc(F)cc4)(C2)C3)ccc1C#N` [Example 151, (S)-4-cyano-N-(3-(1-((4-fluorophenyl)amino)-1-oxopropan-2-yl)bicyclo[1.1.1]pentan-1-yl)-3-methylbenzamide]: the 50% inhibitory concentration (IC50) is 55.6 nM.

In the case of `C[C@@H](C(=O)Nc1ccc(F)cc1)C12CC(NC(=O)c3ccc(F)c(F)c3)(C1)C2` [Example 43, 3,4-difluoro-N-[3-[(1R)-2-(4-fluoroanilino)-1-methyl-2-oxo-ethyl]-1-bicyclo[1.1.1]pentanyl]benzamide], the IC50 was 153 nM.

Regarding `C[C@H](C(=O)Nc1ccc(F)cc1)C12CC(NC(=O)c3cc(F)cc(Cl)c3)(C1)C2` [Example 55, 3-chloro-5-fluoro-N-[3-[(1S)-2-(4-fluoroanilino)-1-methyl-2-oxo-ethyl]-1-bicyclo[1.1.1]pentanyl]benzamide], the IC50 was found to be 152 nM.

As for `Cc1nc(C(=O)NC23CC(C(C)C(=O)Nc4ccc(F)cc4)(C2)C3)cs1` (stereo not drawn) [Example 123, N-[3-[2-(4-fluoroanilino)-1-methyl-2-oxo-ethyl]-1-bicyclo[1.1.1]pentanyl]-2-methyl-thiazole-4-carboxamide], the IC50 worked out at 147 nM.

Regarding `CC(C(=O)Nc1ccc(F)cc1)C12CC(NC(=O)c3cccc4cnccc34)(C1)C2` (stereo not drawn) [Example 134, N-[3-[2-(4-fluoroanilino)-1-methyl-2-oxo-ethyl]-1-bicyclo[1.1.1]pentanyl]isoquinolin-2-ium-5-carboxamide], the IC50 is 267 nM.

Turning to `CC(C)OC(=O)NC12CC([C@H](C)C(=O)Nc3ccc(F)cc3)(C1)C2` [Example 79, isopropyl (S)-(3-(1-((4-fluorophenyl)amino)-1-oxopropan-2-yl)bicyclo[1.1.1]pentan-1-yl)carbamate], the IC50 is 20.4 nM.

On to `C[C@@H](C(=O)Nc1ccc(F)cc1)C12CC(NC(=O)OC(C)(C)C)(C1)C2` (single isomer, unassigned) [Example 31], for which the IC50 is more than 10000 nM.

For `C[C@H](C(=O)Nc1ccc(F)cc1)C12CC(NC(=O)c3ccc(Cl)nc3)(C1)C2` [Example 60, 6-chloro-N-[3-[(1S)-2-(4-fluoroanilino)-1-methyl-2-oxo-ethyl]-1-bicyclo[1.1.1]pentanyl]pyridin-1-ium-3-carboxamide], the IC50 is 157 nM.

Take `C[C@H](C(=O)Nc1cnc(Cl)c(Cl)c1)C12CC(NC(=O)c3ccc(Cl)c(Cl)c3)(C1)C2` [Example 93, (S)-3,4-dichloro-N-(3-(1-((5,6-dichloropyridin-3-yl)amino)-1-oxopropan-2-yl)bicyclo[1.1.1]pentan-1-yl)benzamide]: the IC50 was found to be 105 nM.

As for `CC(C(=O)Nc1ccc(F)cc1)C12CC(NC(=O)c3cnnc4ccccc34)(C1)C2` (stereo not drawn) [Example 135, N-[3-[2-(4-fluoroanilino)-1-methyl-2-oxo-ethyl]-1-bicyclo[1.1.1]pentanyl]cinnoline-4-carboxamide], the IC50 is 276 nM.

For `Cc1ccc(C(=O)NC23CC([C@H](C)C(=O)Nc4ccc(F)cc4)(C2)C3)nc1Cl` [Example 61, 6-chloro-N-[3-[(1S)-2-(4-fluoroanilino)-1-methyl-2-oxo-ethyl]-1-bicyclo[1.1.1]pentanyl]-5-methyl-pyridin-1-ium-2-carboxamide], the half-maximal inhibitory concentration (IC50) came to 11 nM.

Consider `O=C(NC12CC(C3(C(=O)Nc4ccc(F)cc4)CCC3)(C1)C2)c1cccc(Cl)c1` [Example 3, 3-Chloro-N-(3-(1-((4-fluorophenyl)carbamoyl)cyclobutyl)bicyclo [1.1.1]pentan-1-yl) Benzamide], for which the IC50 was 6.29 nM.

As for `Cc1noc(C(=O)NC23CC(C4(NC(=O)c5ccc(F)cc5)CC4)(C2)C3)n1` [Example 28, N-(3-(1-(4-fluorobenzamido)cyclopropyl)bicyclo[1.1.1]pentan-1-yl)-3-methyl-1,2,4-oxadiazole-5-carboxamide], the IC50 is 72.2 nM.

As for `CC(C)(C(=O)Nc1ccc(F)cc1)C12CC(NC(=O)c3ccc(Cl)c(Cl)c3)(C1)C2` [Example 101, 3,4-Dichloro-N-(3-(1-((4-fluorophenyl)amino)-2-methyl-1-oxopropan-2-yl)bicyclo[1.1.1]pentan-1-yl)benzamide], the half-inhibitory concentration (IC50) was 16.9 nM.

For the molecule `CC(NC(=O)c1ccc(F)cc1)C12CC(NC(=O)c3ccc(Cl)c(Cl)c3)(C1)C2` (single isomer, unassigned) [Example 22, 3,4-Dichloro-N-(3-(1-(4-fluorobenzamido)ethyl)bicyclo [1.1.1]pentan-1-yl) Benzamide], the IC50 came out at 28.7 nM.

Regarding `CC(C(=O)Nc1ccc(F)cc1)C12CC(NC(=O)c3ccn(C(F)F)n3)(C1)C2` (stereo not drawn) [Example 131, 1-(difluoromethyl)-N-[3-[2-(4-fluoroanilino)-1-methyl-2-oxo-ethyl]-1-bicyclo[1.1.1]pentanyl]pyrazole-3-carboxamide], the half-maximal inhibitory concentration (IC50) is 248 nM.

Consider `C[C@H](C(=O)Nc1ccc(F)cc1)C12CC(NC(=O)c3ccc(Cl)c(F)c3)(C1)C2` [Example 47, 4-chloro-3-fluoro-N-[3-[(1S)-2-(4-fluoroanilino)-1-methyl-2-oxo-ethyl]-1-bicyclo[1.1.1]pentanyl]benzamide], for which the IC50 amounted to 152 nM.

Regarding `C[C@@H](C(=O)Nc1cnc(Cl)c(F)c1)C12CC(NC(=O)c3ccc(Cl)c(Cl)c3)(C1)C2` [Example 89, (R)-3,4-dichloro-N-(3-(1-((6-chloro-5-yl)amino)-1-oxopropan-2-yl)bicyclo[1.1.1]pentan-1-yl)benzamide], the IC50 was found to be 65.4 nM.

In the case of `CC(C(=O)Nc1ccc(F)cc1)C12CC(NC(=O)c3cccn4nncc34)(C1)C2` (stereo not drawn) [Example 143, N-[3-[2-(4-fluoroanilino)-1-methyl-2-oxo-ethyl]-1-bicyclo[1.1.1]pentanyl]triazolo[1,5-a]pyridin-1-ium-4-carboxamide], the IC50 was determined as 448 nM.
